The values below come from US12209145B2, “PCSK9 antagonist compounds” (Merck Sharp & Dohme LLC, priority 2018, dated 2025).

The target in test [1] is T1, PCSK9 (Homo sapiens, UniProt Q8NBP7).
T1 construct: Biotinylated PCSK9 was obtained commercially; purchased
Description: PCSK9 Alexa FRET Plus TR-FRET assay (displacement of AlexaFluor647 tagged cyclic peptide Reagent B). The test is classed as binding. As to conditions: 0.5 nM biotinylated PCSK9, 960 nM AF cyclic peptide Reagent B, Ki calculated from IC50 and KD of AF peptide. The procedure: (§1) The following is a description of the assays used to determine activity of compounds of the invention, and any comparator compounds reported, toward PCSK9 antagonism. Biotinylated PCSK9 was obtained commercially.
A solution containing 1 nM biotinylated PCSK9+2.5 nM Lance Streptavidin Europium (Strep-Eu) is made in 50 mM HEPES pH 7.4, 0.15 M NaCl, 5 mM CaCl2, 0.01% BSA, and 0.01% Surfactant P20. A separate solution containing 1920 nM of the AlexaFluor tagged cyclic peptide is made in the same buffer system. An Echo is used to transfer 0.075 ul of compound plus 0.675 ul of DMSO to each well of an assay plate followed by the addition of 15 ul of PCSK9+Stept-Eu and 15 ul of AF peptide. The final assay volume is 30.750 ul containing 0.5 nM PCSK9, 1.25 nM Strep-Eu, and 960 nM AF cyclic peptide. The reaction is incubated at room temperature for at least two hours prior to fluorescence measurements using an Envision Multilabel Reader. IC50 values are determined by fitting data to a sigmoidal dose-response curve using nonlinear regression. Ki is then calculated from the IC50 and the KD of AF cyclic peptide. Counts (B-counts) of the europium-labeled PCSK9 are followed to observe if compounds are adversely affecting PCSK9. A fall off of the B-counts is likely indicates a false positive of inhibition. Data from this procedure is reported as “P=‘numerical value’ (nanomolar)”
Activity data obtained by one or both of the above-described procedures is reported for selected example compounds of the invention in the following format: Example No.: A (standard TR Fret)=‘numerical value’; P (Alexa Fret plus standard TR Fret)=‘numerical value’/, note that all values reported are nanomolar.

The target of test [2] is T1, PCSK9. The test is described as follows: PCSK9 Alexa FRET Ultra TR-FRET assay (displacement of AlexaFluor647 tagged cyclic peptide). Format: binding. Particulars: 0.5 nM biotinylated PCSK9, 960 nM AF cyclic peptide, Ki calculated from IC50 and KD of AF peptide. The protocol: as §1
A solution containing 1 nM biotinylated PCSK9+2.5 nM Lance Streptavidin Europium (Strep-Eu) is made in 50 mM HEPES pH 7.4, 0.15 M NaCl, 5 mM CaCl2, 0.01% BSA, and 0.01% Surfactant P20. A separate solution containing 1920 nM of the AlexaFluor tagged cyclic peptide is made in the same buffer system. An Echo is used to transfer 0.015 ul of compound plus 0.735 ul of DMSO to each well of an assay plate followed by the addition of 15 ul of PCSK9+Stept-Eu and 15 ul of AF peptide. The final assay volume is 30.750 ul containing 0.5 nM PCSK9, 1.25 nM Strep-Eu, and 960 nM AF cyclic peptide. The reaction is incubated at room temperature for at least two hours prior to fluorescence measurements using an Envision Multilabel Reader. IC50 values are determined by fitting data to a sigmoidal dose-response curve using nonlinear regression. Ki is then calculated from the IC50 and the KD of AF cyclic peptide. Counts (B-counts) of the europium-labeled PCSK9 are followed to observe if compounds are adversely affecting PCSK9. A fall off of the B-counts is likely indicates a false positive of inhibition. Data from this procedure is reported as “Ki Ultra=‘numerical value’ (data reported is nanomolar)”

T1 sequence (Q8NBP7 153-692): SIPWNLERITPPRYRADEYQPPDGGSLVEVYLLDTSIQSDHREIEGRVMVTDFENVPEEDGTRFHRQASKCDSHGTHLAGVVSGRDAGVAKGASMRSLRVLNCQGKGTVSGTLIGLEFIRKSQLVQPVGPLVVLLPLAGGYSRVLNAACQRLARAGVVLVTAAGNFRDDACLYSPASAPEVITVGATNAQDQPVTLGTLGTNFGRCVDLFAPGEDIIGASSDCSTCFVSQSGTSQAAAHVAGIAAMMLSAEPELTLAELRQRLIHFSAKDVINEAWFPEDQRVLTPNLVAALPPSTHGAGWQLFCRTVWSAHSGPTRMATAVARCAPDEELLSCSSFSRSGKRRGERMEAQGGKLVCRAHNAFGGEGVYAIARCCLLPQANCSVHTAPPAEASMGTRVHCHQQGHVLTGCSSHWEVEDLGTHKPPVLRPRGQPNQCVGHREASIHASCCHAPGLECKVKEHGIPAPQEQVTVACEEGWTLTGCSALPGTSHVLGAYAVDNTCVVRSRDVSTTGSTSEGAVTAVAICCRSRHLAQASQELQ

On to `COc1ccc(C[C@@H]2NC(=O)[C@H]([C@@H](C)O)NC(=O)[C@@H]3[C@@H]4CCN3C(=O)[C@@H]3Cc5cn(c6ccc(F)cc56)Cc5cn(nn5)CCN(Cc5ccc(cc5)CCNC(=O)[C@]5(C)CCCN5C2=O)C(=O)CCCCCC(=O)N[C@H](CNC(=O)CCOCCOCC[N+](C)(C)C)C(=O)N[C@@H](Cc2cccc(c2)CNC(=O)CO4)C(=O)N3)cc1` [Ex-16], for which the Ki was 14.2 pM on PCSK9 [1] (read-out: Ki Plus) and 51.4 pM at PCSK9 [2] (read-out: Ki Ultra).

Consider `COc1ccc(C[C@@H]2NC(=O)[C@H]([C@@H](C)O)NC(=O)[C@@H]3[C@@H]4CCN3C(=O)[C@@H]3Cc5cn(c6ccc(F)cc56)CCCCCN(Cc5ccc(cc5)CCNC(=O)[C@]5(C)CCCN5C2=O)C(=O)CCC(=O)N[C@@H](C)C(=O)N[C@H](CNC(=O)CCOCCOCC[N+](C)(C)C)C(=O)N[C@@H](Cc2cccc(c2)CNC(=O)CO4)C(=O)N3)cc1` [Ex-17], for which the Ki at PCSK9 [1] (read-out: Ki Plus) is not above 5.58 pM; at PCSK9 [2] (read-out: Ki Ultra), 2.8 pM.

Turning to `COc1ccc(C[C@@H]2NC(=O)[C@H]([C@@H](C)O)NC(=O)[C@@H]3[C@@H]4CCN3C(=O)[C@@H]3Cc5cn(c6ccc(F)cc56)CCCCCCN(Cc5ccc(cc5)CCNC(=O)[C@]5(C)CCCN5C2=O)C(=O)CCCC(=O)N[C@H](CNC(=O)CCOCCOCC[N+](C)(C)C)C(=O)N[C@@H](Cc2cccc(c2)CNC(=O)CO4)C(=O)N3)cc1` [Ex-18], the Ki was 33.6 pM on PCSK9 [1] (Ki Plus) and 118 pM at PCSK9 [2] (Ki Ultra).

As for `COc1ccc(C[C@@H]2NC(=O)[C@H]([C@@H](C)O)NC(=O)[C@@H]3[C@@H]4CCN3C(=O)[C@@H]3Cc5cn(c6ccc(F)cc56)CCCCCCN(Cc5ccc(cc5)CCNC(=O)[C@]5(C)CCCN5C2=O)C(=O)CCC(=O)N[C@H]2CN(C(=O)CCOCCOCC[N+](C)(C)C)CCCCC(=O)NC[C@@H](NC2=O)C(=O)N[C@@H](Cc2cccc(c2)CNC(=O)CO4)C(=O)N3)cc1` [Ex-19], the Ki on PCSK9 [1] (read-out: Ki Plus) was 16.6 pM; on PCSK9 [2] (read-out: Ki Ultra), 12 pM.

Consider `COc1ccc(C[C@@H]2NC(=O)[C@H]([C@@H](C)O)NC(=O)[C@@H]3[C@@H]4CCN3C(=O)[C@@H]3Cc5cn(c6ccc(F)cc56)CCCCCCN(Cc5ccc(cc5)CCNC(=O)[C@]5(C)CCCN5C2=O)C(=O)CCCCC(=O)N[C@H](CNC(=O)CCOCCOCC[N+](C)(C)C)C(=O)N[C@@H](Cc2cccc(c2)CNC(=O)CO4)C(=O)N3)cc1` [Ex-20], for which the Ki at PCSK9 [1] (read-out: Ki Plus) was 13 pM; at PCSK9 [2] (read-out: Ki Ultra), 17.1 pM.

Take `COc1ccc(C[C@@H]2NC(=O)[C@H]([C@@H](C)O)NC(=O)[C@@H]3[C@@H]4CCN3C(=O)[C@@H]3Cc5cn(c6ccc(F)cc56)CCCCCCN(Cc5ccc(cc5)CCNC(=O)[C@]5(C)CCCN5C2=O)C(=O)CCCCCC(=O)N[C@H](CNC(=O)CCOCCOCC[N+](C)(C)C)C(=O)N[C@@H](Cc2cccc(c2)CNC(=O)CO4)C(=O)N3)cc1` [Ex-21]: the Ki on PCSK9 [1] (Ki Plus) is 5.69 pM; at PCSK9 [2] (Ki Ultra) it was 1.26 pM.

Regarding `COc1ccc(C[C@@H]2NC(=O)[C@H]([C@@H](C)O)NC(=O)[C@@H]3[C@@H]4CCN3C(=O)[C@@H]3Cc5cn(c6ccc(F)cc56)CCCCCCN(Cc5ccc(cc5)CCNC(=O)[C@]5(C)CCCN5C2=O)C(=O)CCC(=O)N[C@@H](CNC(=O)CCOCCOCC[N+](C)(C)C)C(=O)N[C@H](C)C(=O)N[C@@H](Cc2cccc(c2)CNC(=O)CO4)C(=O)N3)cc1` [Ex-22], the Ki is 9.26 pM on PCSK9 [1] (read-out: Ki Plus) and 15.2 pM at PCSK9 [2] (read-out: Ki Ultra).

Consider `COc1ccc(C[C@@H]2NC(=O)[C@H]([C@@H](C)O)NC(=O)[C@@H]3[C@@H]4CCN3C(=O)[C@@H]3Cc5cn(c6ccc(F)cc56)CCCCCCN(Cc5ccc(cc5)CCNC(=O)[C@]5(C)CCCN5C2=O)C(=O)CCC(=O)N[C@@H](C)C(=O)N[C@H](CNC(=O)CCC(=O)NC2OC(CO)C(O)C(O)C2O)C(=O)N[C@@H](Cc2cccc(c2)CNC(=O)CO4)C(=O)N3)cc1` (stereo partly shown) [Ex-23], for which the figures for the inhibition constant Ki at PCSK9 [1] (read-out: Ki Plus) and at PCSK9 [2] (read-out: Ki Ultra) were 9.38 pM and 2.39 pM, respectively.

On to `COc1ccc(C[C@@H]2NC(=O)[C@H]([C@@H](C)O)NC(=O)[C@@H]3[C@@H]4CCN3C(=O)[C@@H]3Cc5cn(c6ccc(F)cc56)CCCCCCN(Cc5ccc(cc5)CCNC(=O)[C@]5(C)CCCN5C2=O)C(=O)CCC(=O)N[C@@H](C)C(=O)N[C@H](CNC(=O)CCCCC[N+](C)(C)C)C(=O)N[C@@H](Cc2cccc(c2)CNC(=O)CO4)C(=O)N3)cc1` [Ex-25], for which the values for the Ki at PCSK9 [1] (read-out: Ki Plus) and at PCSK9 [2] (Ki Ultra) were 11.3 pM and 4.63 pM, respectively.

Regarding `COc1ccc(C[C@@H]2NC(=O)[C@H]([C@@H](C)O)NC(=O)[C@@H]3C4CCN3C(=O)[C@@H]3Cc5cn(c6ccc(F)cc56)CCCCN(Cc5ccc(cc5)CCNC(=O)[C@]5(C)CCCN5C2=O)C(=O)CCCCCC(=O)N[C@H](CNC(=O)CCC(=O)NC2OC(CO)C(O)C(O)C2O)C(=O)N[C@@H](Cc2cccc(c2)CNC(=O)CO4)C(=O)N3)cc1` (stereo partly shown) [Ex-26], the values for the Ki at PCSK9 [1] (read-out: Ki Plus) and at PCSK9 [2] (read-out: Ki Ultra) were not above 5.58 pM and 2.75 pM, respectively.

On to `COc1ccc(C[C@@H]2NC(=O)[C@H]([C@@H](C)O)NC(=O)[C@@H]3[C@@H]4CCN3C(=O)[C@@H]3Cc5cn(c6ccc(F)cc56)CCCCN(Cc5ccc(cc5)CCNC(=O)[C@]5(C)CCCN5C2=O)C(=O)CCC(=O)N[C@@H](C)C(=O)N[C@H](CNC(=O)CCC(=O)NC2OC(CO)C(O)C(O)C2O)C(=O)N[C@@H](Cc2cccc(c2)CNC(=O)CO4)C(=O)N3)cc1` (stereo partly shown) [Ex-27], for which the Ki is 5.58 pM at PCSK9 [1] (read-out: Ki Plus) and 3.01 pM at PCSK9 [2] (read-out: Ki Ultra).

On to `COc1ccc(C[C@@H]2NC(=O)[C@H]([C@@H](C)O)NC(=O)[C@@H]3[C@@H]4CCN3C(=O)[C@@H]3Cc5cn(c6ccc(F)cc56)C/C=C/CN(Cc5ccc(cc5)CCNC(=O)[C@]5(C)CCCN5C2=O)C(=O)CCC(=O)N[C@@H](C)C(=O)N[C@H](CNC(=O)CCOCCOCC[N+](C)(C)C)C(=O)N[C@@H](Cc2cccc(c2)CNC(=O)CO4)C(=O)N3)cc1` [Ex-29], for which the Ki on PCSK9 [1] (read-out: Ki Plus) was 9.81 pM; on PCSK9 [2] (read-out: Ki Ultra) it was 6.14 pM.

Consider `COc1ccc(C[C@@H]2NC(=O)[C@H]([C@@H](C)O)NC(=O)[C@@H]3[C@@H]4CCN3C(=O)[C@@H]3Cc5cn(c6ccccc56)CCCCCCN(Cc5ccc(cc5)CCNC(=O)[C@]5(C)CCCN5C2=O)C(=O)CCC(=O)N[C@@H](C)C(=O)N[C@H](CNC(=O)CCCCC[N+](C)(C)C)C(=O)N[C@@H](Cc2cccc(c2)CNC(=O)CO4)C(=O)N3)cc1` [Ex-35], for which the figures for the Ki on PCSK9 [1] (Ki Plus) and on PCSK9 [2] (Ki Ultra) were 46.5 pM and 84.3 pM, respectively.

With `COc1ccc(C[C@@H]2NC(=O)[C@H](C)NC(=O)[C@@H]3[C@@H]4CCN3C(=O)[C@@H]3Cc5cn(c6ccc(F)cc56)CCCCCCN(Cc5ccc(cc5)CCNC(=O)[C@]5(C)CCCN5C2=O)C(=O)CCC(=O)N[C@@H](C)C(=O)N[C@H](CNC(=O)CCCCC[N+](C)(C)C)C(=O)N[C@@H](Cc2cccc(c2)CNC(=O)CO4)C(=O)N3)cc1` [Ex-36], the Ki on PCSK9 [1] (Ki Plus) was 7.62 pM; on PCSK9 [2] (Ki Ultra), 5.07 pM.

In the case of `COc1ccc(C[C@@H]2NC(=O)[C@H]([C@@H](C)O)NC(=O)[C@@H]3[C@@H]4CCN3C(=O)[C@@H]3Cc5cn(c6ccc(F)cc56)CCCCC[C@@H](NC(=O)CCC(=O)N[C@@H](C)C(=O)N[C@H](CNC(=O)CCCCC[N+](C)(C)C)C(=O)N[C@@H](Cc5cccc(c5)CNC(=O)CO4)C(=O)N3)c3ccc(cc3)CCNC(=O)[C@]3(C)CCCN3C2=O)cc1` [Ex-38], the figures for the Ki at PCSK9 [1] (Ki Plus) and at PCSK9 [2] (Ki Ultra) were 9.04 pM and 14.2 pM, respectively.

As to `COc1ccc(C[C@@H]2NC(=O)[C@H]([C@@H](C)O)NC(=O)[C@@H]3[C@@H]4CCN3C(=O)[C@@H]3Cc5cn(c6ccc(F)cc56)CCCCCOCc5cc(ccc5CNC(=O)CCC(=O)N[C@@H](C)C(=O)N[C@H](CNC(=O)CCCCC[N+](C)(C)C)C(=O)N[C@@H](Cc5cccc(c5)CNC(=O)CO4)C(=O)N3)CCNC(=O)[C@]3(C)CCCN3C2=O)cc1` [Ex-39], the Ki at PCSK9 [1] (Ki Plus) is 7.16 pM; on PCSK9 [2] (Ki Ultra), 4.14 pM.

As for `COc1ccc(C[C@@H]2NC(=O)[C@H]([C@@H](C)O)NC(=O)[C@@H]3[C@@H]4CCN3C(=O)[C@@H]3Cc5cn(c6ccc(F)cc56)CCCCOc5cc(cc(c5)CNC(=O)CCC(=O)N[C@@H](C)C(=O)N[C@H](CNC(=O)CCCCC[N+](C)(C)C)C(=O)N[C@@H](Cc5cccc(c5)CNC(=O)CO4)C(=O)N3)CCNC(=O)[C@]3(C)CCCN3C2=O)cc1` [Ex-40], the Ki on PCSK9 [1] (Ki Plus) was 308 pM; on PCSK9 [2] (Ki Ultra) it was 860 pM.
